The record followed here is US9296725B2, “Heterocyclyl pyrimidine analogues as TYK2 inhibitors” (Cellzome Limited, priority 2012, dated 2016).

For test [1], the target named is T1, TYK2 (Homo sapiens, UniProt P29597).
T1 construct: endogenous in cells; host or cells: Molt4 (ATCC CRL-1582) and Ramos (ATCC CRL-1596), mixed lysate 1:2
The experiment in a line: Kinobeads assay, TYK2 (competition binding in mixed Molt4/Ramos cell lysate, dot blot detection). The settings on record: Kinobeads assay, Molt4/Ramos lysate; read-out: TYK2 Band (Kinobeads assay potency, IC50). The method, boiled down:
(§1)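 JAK2 and TYK2 retained on Kinobeads (immobilized aminopyrido-pyrimidine ligand) from 1:2 Molt4:Ramos lysate (10 mg/mL) were quantified by antibody dot blot (Odyssey infrared) after 3 h cold incubation with compound. Nine-step 1:3 dilution series; IC50 calculated from curves.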

In test [2] the target is T2, JAK2 (Homo sapiens, UniProt O60674).
T2 construct: endogenous in cells; host or cells: Molt4 (ATCC CRL-1582) and Ramos (ATCC CRL-1596), mixed lysate 1:2
As to the kind of experiment: Kinobeads assay, JAK2 (competition binding in mixed Molt4/Ramos cell lysate, dot blot detection). The settings on record: read-out: JAK2 Band (Kinobeads assay potency, IC50). The procedure, abridged:
as §1

As a reminder, the IC50 is the midpoint of a concentration-inhibition curve.

T1 sequence (P29597 whole entry): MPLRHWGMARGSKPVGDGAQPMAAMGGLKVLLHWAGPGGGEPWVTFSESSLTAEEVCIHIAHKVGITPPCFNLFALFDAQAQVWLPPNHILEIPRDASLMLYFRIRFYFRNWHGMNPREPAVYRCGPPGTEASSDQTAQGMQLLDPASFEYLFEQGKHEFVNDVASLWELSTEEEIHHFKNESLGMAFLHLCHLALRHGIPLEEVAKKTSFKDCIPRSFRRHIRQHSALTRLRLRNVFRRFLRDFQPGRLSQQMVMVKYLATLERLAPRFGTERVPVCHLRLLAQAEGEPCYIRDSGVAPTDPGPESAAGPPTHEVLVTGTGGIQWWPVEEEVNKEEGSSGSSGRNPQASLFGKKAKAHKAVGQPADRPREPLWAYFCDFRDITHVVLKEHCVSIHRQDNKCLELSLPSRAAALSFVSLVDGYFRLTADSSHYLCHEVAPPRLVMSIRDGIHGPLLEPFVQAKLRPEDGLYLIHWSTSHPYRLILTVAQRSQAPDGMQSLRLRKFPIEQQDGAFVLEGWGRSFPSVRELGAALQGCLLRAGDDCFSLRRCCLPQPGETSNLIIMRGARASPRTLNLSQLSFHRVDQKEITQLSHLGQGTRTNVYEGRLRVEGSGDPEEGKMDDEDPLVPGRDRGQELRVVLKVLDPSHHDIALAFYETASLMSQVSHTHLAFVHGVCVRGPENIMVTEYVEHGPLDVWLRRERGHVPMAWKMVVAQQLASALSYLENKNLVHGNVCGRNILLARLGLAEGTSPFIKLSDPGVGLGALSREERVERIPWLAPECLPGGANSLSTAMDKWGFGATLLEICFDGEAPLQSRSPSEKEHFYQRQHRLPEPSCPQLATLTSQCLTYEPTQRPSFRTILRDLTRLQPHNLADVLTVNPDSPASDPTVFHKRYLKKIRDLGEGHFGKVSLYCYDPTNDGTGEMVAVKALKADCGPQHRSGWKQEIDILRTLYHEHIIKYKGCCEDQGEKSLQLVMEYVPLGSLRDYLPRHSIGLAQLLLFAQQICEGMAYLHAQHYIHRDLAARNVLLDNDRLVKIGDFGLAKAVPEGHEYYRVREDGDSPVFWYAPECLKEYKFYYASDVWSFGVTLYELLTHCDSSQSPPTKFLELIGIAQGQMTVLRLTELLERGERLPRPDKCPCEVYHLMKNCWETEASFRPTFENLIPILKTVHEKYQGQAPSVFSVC
T2 sequence (O60674 whole entry): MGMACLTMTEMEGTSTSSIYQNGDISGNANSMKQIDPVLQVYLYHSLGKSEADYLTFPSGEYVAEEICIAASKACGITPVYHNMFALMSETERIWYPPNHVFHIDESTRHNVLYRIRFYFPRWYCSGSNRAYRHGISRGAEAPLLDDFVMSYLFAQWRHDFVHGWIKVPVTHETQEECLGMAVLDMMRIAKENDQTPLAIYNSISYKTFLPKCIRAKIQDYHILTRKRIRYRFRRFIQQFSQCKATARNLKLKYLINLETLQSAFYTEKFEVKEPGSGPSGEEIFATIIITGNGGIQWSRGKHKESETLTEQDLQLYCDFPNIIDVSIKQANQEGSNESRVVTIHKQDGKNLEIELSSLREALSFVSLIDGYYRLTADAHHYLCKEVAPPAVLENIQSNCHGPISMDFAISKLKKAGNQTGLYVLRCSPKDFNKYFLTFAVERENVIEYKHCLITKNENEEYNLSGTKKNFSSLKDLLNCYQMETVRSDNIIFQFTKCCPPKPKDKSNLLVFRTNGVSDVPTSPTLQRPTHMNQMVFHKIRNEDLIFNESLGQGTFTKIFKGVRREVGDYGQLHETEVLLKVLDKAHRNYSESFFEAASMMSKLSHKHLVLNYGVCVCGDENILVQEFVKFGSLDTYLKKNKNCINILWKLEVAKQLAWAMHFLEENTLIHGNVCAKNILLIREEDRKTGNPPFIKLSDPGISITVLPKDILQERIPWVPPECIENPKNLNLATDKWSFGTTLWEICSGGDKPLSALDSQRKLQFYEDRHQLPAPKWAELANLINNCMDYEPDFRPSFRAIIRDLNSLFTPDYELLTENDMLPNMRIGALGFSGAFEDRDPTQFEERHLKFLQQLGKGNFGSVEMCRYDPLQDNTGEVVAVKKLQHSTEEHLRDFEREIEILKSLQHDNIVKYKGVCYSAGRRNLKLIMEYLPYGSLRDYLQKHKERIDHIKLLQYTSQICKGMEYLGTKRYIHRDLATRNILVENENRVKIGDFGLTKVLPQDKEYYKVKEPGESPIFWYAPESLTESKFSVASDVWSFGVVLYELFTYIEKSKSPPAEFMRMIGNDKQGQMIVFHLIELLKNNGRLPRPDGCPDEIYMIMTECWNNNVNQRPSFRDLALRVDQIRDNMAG

With `[2H]C([2H])(O)C([2H])([2H])n1cc(Nc2ncc(Cl)c(NCc3c(F)cccc3F)n2)cn1` [Example I-234], the IC50 was in the range of 10 to 100 nM in test [1] and 100 to 1000 nM in test [2].

On to `COc1cc(F)c(CNc2nc(Nc3cnn(CC(=O)N4CCOCC4)c3)ncc2C)c(F)c1` [Example I-29], for which the IC50 in test [1] is not above 10 nM; in test [2] it was 1000 to 10000 nM.

As to `OCCn1cc(Nc2ncc(Cl)c(NCc3cc(F)cc(C(F)(F)F)c3)n2)cn1` [Example I-181], the IC50 in test [1] was 100 to 1000 nM; in test [2], 1000 to 10000 nM.

In the case of `Fc1ccc(F)c(CNc2nc(Nc3cnn(CC(F)F)c3)ncc2Cl)c1F` [Example I-336], the IC50 in test [1] is 10 to 100 nM; in test [2], 100 to 1000 nM.

Take `COc1ccc(F)c(CNc2ccnc(Nc3cnn(CC(=O)N[C@H](C)CO)c3)n2)c1F` [Example I-124]: the IC50 was 10 to 100 nM in test [1] and 1000 to 10000 nM in test [2].

Consider `O=C(Cn1cc(Nc2nccc(NCc3c(F)cccc3F)n2)cn1)NC1CC1` [Example I-152], for which the values for the IC50 in test [1] and in test [2] were 10 to 100 nM and 1000 to 10000 nM, respectively.

On to `Cc1cnc(Nc2cnn(CC(=O)N3CCOCC3)c2)nc1NCc1c(F)ccc(F)c1F` [Example I-423], for which the IC50 in test [1] is not above 10 nM; in test [2], 100 to 1000 nM.

In the case of `NC(=O)Cn1cc(Nc2ncc(F)c(NCc3c(F)cc(F)cc3F)n2)cn1` [Example I-157], the IC50 was in the range of 10 to 100 nM in test [1] and 1000 to 10000 nM in test [2].

Consider `CC(C)(C)NC(=O)Cn1cc(Nc2nccc(NCc3c(F)cc(F)cc3F)n2)cn1` [Example I-51], for which the IC50 is 10 to 100 nM in test [1] and more than 10000 nM in test [2].

For `Cc1cnc(Nc2cnn(CC(N)=O)c2)nc1NCc1ccccc1S(C)(=O)=O` [Example I-434], the half-inhibitory concentration (IC50) lay within 100 to 1000 nM in test [1] and 1000 to 10000 nM in test [2].

`C[C@@H](CO)NC(=O)Cn1cc(Nc2nccc(NCc3c(F)cccc3Cl)n2)cn1` [Example I-120]: the IC50 in test [1] is not above 10 nM; in test [2], 1000 to 10000 nM.

With `COc1ccc(S(C)(=O)=O)cc1CNc1nc(Nc2cnn(CC(F)F)c2)ncc1C` [Example I-107], the IC50 lay in the range of 10 to 100 nM in test [1] and 100 to 1000 nM in test [2].

Turning to `N#Cc1c(F)cccc1CNc1nc(Nc2cnn(CC(N)=O)c2)ncc1Cl` [Example I-286], the IC50 in test [1] and in test [2] was 100 to 1000 nM throughout.

Take `Cc1cnc(Nc2cnn(CC(=O)N3CCOCC3)c2)nc1NCc1c(F)cccc1F` [Example I-305]: the IC50 in test [1] is not above 10 nM; in test [2], 100 to 1000 nM.

On to `COc1ccc(F)c(CNc2nc(Nc3cnn(CC(N)=O)c3)ncc2F)c1F` [Example I-384], for which the results for the IC50 in test [1] and in test [2] were 10 to 100 nM and 1000 to 10000 nM, respectively.

As to `CC(C)(CF)NC(=O)Cn1cc(Nc2nccc(NCc3c(F)cc(F)cc3F)n2)cn1` [Example I-430], the half-inhibitory concentration (IC50) in test [1] lay within 10 to 100 nM; in test [2], 1000 to 10000 nM.

For `CCNC(=O)Cn1cc(Nc2nccc(NCc3c(F)cc(F)cc3F)n2)cn1` [Example I-6, N-ethyl-2-(4-((4-((2,4,6-trifluorobenzyl)amino)pyrimidin-2-yl)amino)-1H-pyrazol-1-yl)acetamide], the IC50 in test [1] was 10 to 100 nM; in test [2] it was 1000 to 10000 nM.

On to `OCCn1cc(Nc2ncc(Cl)c(NCc3ccccc3F)n2)cn1` [Example I-174], for which the IC50 in test [1] lay in the range of 10 to 100 nM; in test [2], 100 to 1000 nM.

Consider `COc1ccc(F)c(CNc2ccnc(Nc3cnn(CC(=O)N[C@@H](C)CO)c3)n2)c1F` [Example I-133], for which the IC50 in test [1] is not above 10 nM; in test [2], 1000 to 10000 nM.

Consider `Cn1cc(Nc2ncc(Cl)c(NCc3cc(F)cc(C(F)(F)F)c3)n2)cn1` [Example I-166], for which the IC50 in test [1] is 100 to 1000 nM; in test [2], 1000 to 10000 nM.

Take `O=C(Cn1cc(Nc2ncc(F)c(NCc3c(F)cc(F)cc3F)n2)cn1)N1CCOCC1` [Example I-26]: the IC50 in test [1] is not above 10 nM; in test [2], 1000 to 10000 nM.

Take `CS(=O)(=O)c1ccc(F)cc1CNc1nc(Nc2cnn(CC(=O)NC3CC3)c2)ncc1Cl` [Example I-74]: the IC50 is 10 to 100 nM in test [1] and 100 to 1000 nM in test [2].

`CC(C)(C)OC(=O)N1CC2CCC1CN2C(=O)Cn1cc(Nc2ncc(Cl)c(NCc3ccccc3)n2)cn1` (centres unmarked) [Example I-197]: the IC50 fell in the range of 100 to 1000 nM in test [1] and 1000 to 10000 nM in test [2].

On to `CCOc1ccc(F)c(CNc2nc(Nc3cnn(CCO)c3)ncc2Cl)c1F` [Example I-358], for which the IC50 in test [1] was 10 to 100 nM; in test [2], 100 to 1000 nM.

Take `Cc1cnc(Nc2cnn(CC(=O)NC3CCOC3)c2)nc1NCc1c(F)cc(F)cc1F` (centres unmarked) [Example I-37]: the IC50 in test [1] was 10 to 100 nM; in test [2], 100 to 1000 nM.

Take `COc1c(F)cccc1CNc1nc(Nc2cnn(CC(=O)O)c2)ncc1Cl` [Example I-403]: the IC50 in test [1] is 100 to 1000 nM; in test [2], 1000 to 10000 nM.

As for `CS(=O)(=O)c1ccccc1CNc1nc(Nc2cnn(CC(=O)N3CCOCC3)c2)ncc1Cl` [Example I-453], the IC50 in test [1] and in test [2] was 100 to 1000 nM each time.

`CN(Cc1cccc(CNc2nc(Nc3cnn(CC(=O)N4CCOCC4)c3)ncc2Cl)c1)S(C)(=O)=O` [Example I-401]: the IC50 in test [1] is 100 to 1000 nM; in test [2] it was 1000 to 10000 nM.

`CNC(=O)Cn1cc(Nc2ncc(F)c(NCc3c(F)ccc(F)c3F)n2)cn1` [Example I-410]: the IC50 is 10 to 100 nM in test [1] and 1000 to 10000 nM in test [2].

`COc1ccc(F)c(CNc2nc(Nc3cnn(C)c3)ncc2Cl)c1F` [Example I-319]: the IC50 in test [1] was in the range of 10 to 100 nM; in test [2], 1000 to 10000 nM.

For `OCCn1cc(Nc2ncc(F)c(NCc3ccccc3)n2)cn1` [Example I-193], the IC50 in test [1] is 100 to 1000 nM; in test [2], 1000 to 10000 nM.

As for `[2H]C([2H])(O)C([2H])([2H])n1cc(Nc2ncc(Cl)c(NCc3cccc(F)c3F)n2)cn1` [Example I-233], the IC50 in test [1] was in the range of 100 to 1000 nM; in test [2], 1000 to 10000 nM.

As to `COc1ccc(F)c(CNc2nc(Nc3cnn(CC(=O)N4CCOCC4)c3)ncc2C)c1F` [Example I-22], the values for the IC50 in test [1] and in test [2] were not above 10 nM and 100 to 1000 nM, respectively.

Regarding `NS(=O)(=O)c1cc(F)c(CNc2nc(Nc3cnn(CC(=O)N4CCCCC4)c3)ncc2F)c(F)c1` [Example I-31], the IC50 lay within 10 to 100 nM in test [1] and 1000 to 10000 nM in test [2].

In the case of `CS(=O)(=O)c1cccc(CNc2nc(Nc3cnn(CC(F)F)c3)ncc2Cl)c1` [Example I-467], the IC50 in test [1] and in test [2] was 1000 to 10000 nM each time.

For `CNC(=O)Cn1cc(Nc2ncc(Cl)c(NCc3cc(F)cc(F)c3)n2)cn1` [Example I-190], the IC50 in test [1] and in test [2] was 100 to 1000 nM throughout.

For the molecule `COc1ccc(F)c(CNc2nc(Nc3cnn(CC(=O)NC(C)C)c3)ncc2F)c1F` [Example I-48], the IC50 was not above 10 nM in test [1] and 1000 to 10000 nM in test [2].

For `COc1c(F)cc(F)cc1CNc1nc(Nc2cnn(C)c2)ncc1Cl` [Example I-276], the IC50 lay within 100 to 1000 nM in test [1] and 10 to 100 nM in test [2].

Regarding `Cc1cnc(Nc2cnn(CC(=O)N3CCOCC3)c2)nc1NCc1cccc(OC(F)F)c1` [Example I-23], the figures for the half-inhibitory concentration (IC50) in test [1] and in test [2] were not above 10 nM and 1000 to 10000 nM, respectively.

Consider `Cc1scnc1Cn1cc(Nc2ncc(Cl)c(NCc3c(F)cccc3F)n2)cn1` [Example I-484], for which the IC50 in test [1] and in test [2] was 100 to 1000 nM in each case.

Regarding `CNC(=O)Cn1cc(Nc2ncc(Cl)c(NCc3cc(F)cc(C(F)(F)F)c3)n2)cn1` [Example I-189], the IC50 in test [1] is 100 to 1000 nM; in test [2], 1000 to 10000 nM.

Regarding `O=C(Cn1cc(Nc2ncc(F)c(NCc3cccc(OC(F)F)c3)n2)cn1)NC1CC1` [Example I-46], the values for the IC50 in test [1] and in test [2] were 10 to 100 nM and more than 10000 nM, respectively.

For the molecule `Cn1cc(Nc2ncc(Cl)c(NCc3cccc(C#N)c3)n2)cn1` [Example I-159], the half-inhibitory concentration (IC50) in test [1] lay within 10 to 100 nM; in test [2], 1000 to 10000 nM.

`CC(C)NC(=O)Cn1cc(Nc2nccc(NCc3c(F)ccc(C#N)c3F)n2)cn1` [Example I-134]: the IC50 was not above 10 nM in test [1] and 1000 to 10000 nM in test [2].

`O=C(Cn1cc(Nc2ncc(F)c(NCc3c(Cl)cccc3Cl)n2)cn1)N1CCOCC1` [Example I-49]: the IC50 in test [1] lay within 10 to 100 nM; in test [2], 1000 to 10000 nM.

Turning to `CS(=O)(=O)NCc1cccc(CNc2nc(Nc3cnn(CC(=O)N4CCOCC4)c3)ncc2Cl)c1` [Example I-396], the IC50 in test [1] lay within 10 to 100 nM; in test [2], 1000 to 10000 nM.

Turning to `N#CCNC(=O)Cn1cc(Nc2nccc(NCc3c(F)cc(F)cc3F)n2)cn1` [Example I-110], the IC50 in test [1] is 10 to 100 nM; in test [2], more than 10000 nM.

Regarding `Cc1cnc(Nc2cnn(C)c2)nc1NCc1c(F)cccc1F` [Example I-418], the results for the IC50 in test [1] and in test [2] were 10 to 100 nM and 100 to 1000 nM, respectively.

Take `OCCn1cc(Nc2ncc(Cl)c(NCc3cc(C(F)(F)F)ccc3F)n2)cn1` [Example I-281]: the values for the IC50 in test [1] and in test [2] were 10 to 100 nM and 100 to 1000 nM, respectively.

In the case of `CNC(=O)Cn1cc(Nc2ncc(Cl)c(NCc3ccccc3)n2)cn1` [Example I-195], the values for the IC50 in test [1] and in test [2] were 100 to 1000 nM and 1000 to 10000 nM, respectively.

For `COc1ccccc1CNc1nc(Nc2cnn(CC(N)=O)c2)ncc1Cl` [Example I-321], the half-inhibitory concentration (IC50) was 100 to 1000 nM in test [1] and 1000 to 10000 nM in test [2].

As to `COc1ccc(F)c(CNc2nc(Nc3cnn(CCO)c3)ncc2C)c1F` [Example I-304], the IC50 was not above 10 nM in test [1] and 10 to 100 nM in test [2].

Consider `Fc1cccc(F)c1CNc1nc(Nc2cnn(CC(F)F)c2)ncc1Cl` [Example I-469], for which the IC50 in test [1] and in test [2] was 100 to 1000 nM each time.

In the case of `Cc1cnc(Nc2cnn(CCO)c2)nc1NCc1c(F)cccc1F` [Example I-298], the IC50 in test [1] is not above 10 nM; in test [2] it was 100 to 1000 nM.

Turning to `CN(C)C(=O)Cn1cc(Nc2ncc(F)c(NCc3c(F)ccc(F)c3F)n2)cn1` [Example I-411], the 50% inhibitory concentration (IC50) in test [1] was in the range of 10 to 100 nM; in test [2], 1000 to 10000 nM.
